# Test results: patent US11708348B2, “Protease inhibitors for treatment of coronavirus infections” (The Scripps Research Institute, priority 2021, dated 2023)
# Test system: SARS-CoV-2 strain USA-WA1/2020
# Assay: microbe, parasite or virus in culture
# Type: cell-based
# Details: Severe acute respiratory syndrome coronavirus 2, HeLa-ACE2, 24 h, HeLa-ACE2 cells, SARS-CoV-2 infection, 24 h; cells given as a bound; read-out: EC50, uM (Hela)
row,SMILES,EC50 [µM]
1,"CC(C)C[C@H](NC(=O)OCCc1cccc(Cl)c1)C(=O)N[C@@H](C[C@@H]1CCNC1=O)C(=O)COc1c(F)c(F)cc(F)c1F [Compound 138, 3-chlorophenethyl ((S)-4-methyl-1-oxo-1-(((S)-3-oxo-1-((S)-2-oxopyrrolidin-3-yl)-4-(2,3,5,6-tetrafluorophenoxy)butan-2-yl)amino)pentan-2-yl)carbamate]",> 1

# Same assay, conditions: Severe acute respiratory syndrome coronavirus 2, HeLa-ACE2, 24 h, HeLa-ACE2 cells, SARS-CoV-2 infection, 24 h; class symbols; read-out: EC50, uM (Hela)
row,SMILES,EC50 [µM]
1,"O=C(Nc1ccccc1Cl)C(=O)N[C@@H](CC1CCCCC1)C(=O)N[C@@H](C[C@@H]1CCNC1=O)C(=O)COc1c(F)c(F)cc(F)c1F [Compound 92, N1-(2-chlorophenyl)-N2-((S)-3-cyclohexyl-1-oxo-1-(((S)-3-oxo-1-((S)-2-oxopyrrolidin-3-yl)-4-(2,3,5,6-tetrafluorophenoxy)butan-2-yl)amino)propan-2-yl)oxalamide]",< 0.05
2,"CC(C)C[C@H](NC(=O)C(=O)NC1CC2(C1)CC(F)(F)C2)C(=O)N[C@@H](C[C@@H]1CCNC1=O)C(=O)COC(F)(F)F [Compound 241, N1-(6,6-difluorospiro-[3.3]heptan-2-yl)-N2-((S)-4-methyl-1-oxo-1-(((S)-3-oxo-1-((S)-2-oxopyrrolidin-3-yl)-4-(trifluoromethoxy)butan-2-yl)amino)pentan-2-yl)oxalamide]",< 0.05
3,"Cc1cc(C(=O)N[C@@H](CC(C)C)C(=O)N[C@@H](C[C@@H]2CCNC2=O)C(=O)COc2c(F)c(F)cc(F)c2F)no1 [Compound 114, 5-methyl-N-((S)-4-methyl-1-oxo-1-(((S)-3-oxo-1-((S)-2-oxopyrrolidin-3-yl)-4-(2,3,5,6-tetrafluorophenoxy)butan-2-yl)amino)pentan-2-yl)isoxazole-3-carboxamide]",0.5 to 1
4,"CC(C)C[C@@H](OC(=O)NC1CCCCC1)C(=O)N1CC2(CC2)C[C@H]1C(=O)N[C@@H](C[C@@H]1CCNC1=O)C(=O)COC(F)(F)F [Compound 330, (R)-4-methyl-1-oxo-1-((S)-6-(((S)-3-oxo-l-((S)-2-oxopyrrolidin-3-yl)-4-(trifluoromethoxy)butan-2-yl)carbamoyl)-5-azaspiro[2.4]heptan-5-yl)pentan-2-yl cyclohexylcarbamate]",< 0.05
5,"O=C(Nc1ccccc1)C(=O)N[C@@H](CC1CCC1)C(=O)N[C@@H](C[C@@H]1CCNC1=O)C(=O)COc1c(F)c(F)cc(F)c1F [Compound 31, N1-((S)-3-cyclobutyl-1-oxo-1-(((S)-3-oxo-1-((S)-2-oxopyrrolidin-3-yl)-4-(2,3,5,6-tetra-fluorophenoxy)butan-2-yl)amino)propan-2-yl)-N2-phenyloxalamide]",< 0.05
6,"CC(C)C[C@H](NC(=O)C(=O)NC1CCC1)C(=O)N[C@@H](C[C@@H]1CCNC1=O)C(=O)COc1c(F)c(F)cc(F)c1F [Compound 124, N1-cyclobutyl-N2-((S)-4-methyl-1-oxo-1-(((S)-3-oxo-1-((S)-2-oxopyrrolidin-3-yl)-4-(2,3,5,6-tetrafluorophenoxy)butan-2-yl)amino)pentan-2-yl)oxalamide]",0.05 to 0.2
7,"CC(C)(C)[C@H](O)C(=O)N1C[C@H]2[C@@H]([C@H]1C(=O)N[C@@H](C[C@@H]1CCNC1=O)C(=O)COC(F)(F)F)C2(C)C [Compound 345, (1R,2S,5S)-3-((S)-2-hydroxy-3,3-dimethylbutanoyl)-6,6-dimethyl-N-((S)-3-oxo-1-((S)-2-oxopyrrolidin-3-yl)-4-(trifluoromethoxy)butan-2-yl)-3-azabicyclo-[3.1.0]hexane-2-carboxamide]",< 0.05
8,"COc1ccccc1NC(=O)C(=O)N[C@@H](CC(C)C)C(=O)N[C@@H](C[C@@H]1CCNC1=O)C(=O)COc1c(F)c(F)cc(F)c1F [Compound 112, N1-(2-methoxyphenyl)-N2-((S)-4-methyl-1-oxo-1-(((S)-3-oxo-1-((S)-2-oxopyrrolidin-3-yl)-4-(2,3,5,6-tetrafluorophenoxy)butan-2-yl)amino)pentan-2-yl)oxalamide]",0.05 to 0.2
9,"COc1cccc(NC(=O)C(=O)N[C@@H](Cc2cccc(F)c2)C(=O)N[C@@H](C[C@@H]2CCNC2=O)C(=O)COC(F)(F)F)c1 [Compound 242, N1-((S)-3-(3-fluorophenyl)-1-oxo-1-(((S)-3-oxo-1-((S)-2-oxopyrrolidin-3-yl)-4-(trifluoromethoxy)butan-2-yl)amino)propan-2-yl)-N2-(3-methoxy-phenyl)oxalamide]",< 0.05
10,"CC(C)C[C@H](NC(=O)C(=O)NC1(C)CCNC1)C(=O)N[C@@H](C[C@@H]1CCNC1=O)C(=O)COC(F)(F)F (stereo partly drawn) [Compound 252, N1-((S)-4-methyl-1-oxo-1-(((S)-3-oxo-1-((S)-2-oxopyrrolidin-3-yl)-4-(trifluoromethoxy)butan-2-yl)amino)pentan-2-yl)-N2-(3-methylpyrrolidin-3-yl)oxalamide]",0.2 to 0.5
11,"CC(C)C[C@H](NC(=O)Nc1ccccc1F)C(=O)N[C@@H](C[C@@H]1CCNC1=O)C(=O)COc1c(F)c(F)cc(F)c1F [Compound 84, (S)-2-(3-(2-fluorophenyl)ureido)-4-methyl-N-((S)-3-oxo-1-((S)-2-oxopyrrolidin-3-yl)-4-(2,3,5,6-tetrafluorophenoxy)butan-2-yl)pentanamide]",0.05 to 0.2
12,"CC[C@@H](O)C(=O)N1C[C@H]2[C@@H]([C@H]1C(=O)N[C@@H](C[C@@H]1CCNC1=O)C(=O)COC(F)(F)F)C2(C)C [Compound 368, (1R,2S,5S)-3-((R)-2-hydroxybutanoyl)-6,6-dimethyl-N-((S)-3-oxo-1-((S)-2-oxopyrrolidin-3-yl)-4-(trifluoromethoxy)butan-2-yl)-3-azabicyclo[3.1.0]= hexane-2-carboxamide]",0.05 to 0.2

# Same assay, conditions: Severe acute respiratory syndrome coronavirus 2, HeLa-ACE2, 24 h, HeLa-ACE2 cells, SARS-CoV-2 infection, 24 h; read-out: EC50, uM (Hela)
row,SMILES,EC50 [µM]
1,"CC(C)(C)NC(=O)C(=O)N1C[C@@H]2C[C@@H]2[C@H]1C(=O)N[C@@H](C[C@@H]1CCNC1=O)C(=O)COC(F)(F)F [Compound 493, (1S,2S,5R)-3-(2-(tert-butylamino)-2-oxoacetyl)-N-((S)-3-oxo-1-((S)-2-oxopyrrolidin-3-yl)-4-(trifluoromethoxy)butan-2-yl)-3-azabicyclo[3.1.0]-hexane-2-carboxamide]",0.2 to 0.5
2,"O=C1NCC[C@H]1C[C@H](NC(=O)[C@@H]1CC2(CC2)CN1C(=O)Cc1ccccc1)C(=O)COC(F)(F)F [Compound 648, (S)-N-((S)-3-oxo-1-((S)-2-oxopyrrolidin-3-yl)-4-(trifluoromethoxy)butan-2-yl)-5-(2-phenylacetyl)-5-azaspiro[2.4]heptane-6-carboxamide]",< 0.05
3,"O=C1NCC[C@H]1C[C@H](NC(=O)[C@@H]1CC2(CC2)CN1C(=O)[C@H](O)c1ccc(F)cc1)C(=O)COC(F)(F)F [Compound 403, (S)-5-((R)-2-(4-fluorophenyl)-2-hydroxyacetyl)-N-((S)-3-oxo-1-((S)-2-oxopyrrolidin-3-yl)-4-(trifluoromethoxy)butan-2-yl)-5-azaspiro[2.4]heptane-6-carboxamide]",0.05 to 0.2
4,"CC[C@@H](NC(=O)OC(C)(C)C)C(=O)N1C[C@H]2[C@@H]([C@H]1C(=O)N[C@@H](CC1CCNC1=O)C(=O)COC(F)(F)F)C2(C)C (stereo in doubt) [Compound 438, tert-butyl ((R)-1-((1R,2S,5S)-6,6-dimethyl-2-(((S)-3-oxo-1-((S)-2-oxopyrrolidin-3-yl)-4-(trifluoromethoxy)butan-2-yl)carbamoyl)-3-azabicyclo[3.1.0]-hexan-3-yl)-1-oxobutan-2-yl)carbamate]",< 0.05
5,O=C(NCC(F)(F)F)C(=O)N1CC2(CC2)C[C@H]1C(=O)N[C@@H](C[C@@H]1CCNC1=O)C(=O)COC(F)(F)F [Compound 570],0.05 to 0.2
6,"[2H]C([2H])([2H])C(C(=O)N1CC2(CC2)C[C@H]1C(=O)N[C@@H](C[C@@H]1CCNC1=O)C(=O)COC(F)(F)F)C([2H])([2H])[2H] [Compound 739, (S)-5-(2-(methyl-d3)propanoyl-3,3,3-d3)-N-((S)-3-oxo-1-((S)-2-oxopyrrolidin-3-yl)-4-(trifluoromethoxy)butan-2-yl)-5-azaspiro[2.4]heptane-6-carboxamide]",0.05 to 0.2
7,"CC(C)C[C@H](NC(=O)CNC1(C(F)(F)F)CC1)C(=O)N[C@@H](C[C@@H]1CCNC1=O)C(=O)COC(F)(F)F [Compound 434, (S)-4-methyl-N-((S)-3-oxo-1-((S)-2-oxopyrrolidin-3-yl)-4-(trifluoromethoxy)butan-2-yl)-2-(2-((1-(trifluoromethyl)-cyclopropyl)amino)-acetamido)pentanamide]",< 0.05
8,"CN(C)S(=O)(=O)N(C)CC(=O)N1CC2(CC2)C[C@H]1C(=O)N[C@@H](C[C@@H]1CCNC1=O)C(=O)COC(F)(F)F [Compound 693, (S)-5-(N-(N,N-dimethylsulfamoyl)-N-methylglycyl)-N-((S)-3-oxo-1-((S)-2-oxopyrrolidin-3-yl)-4-(trifluoromethoxy)butan-2-yl)-5-azaspiro[2.4]heptane-6-carboxamide]",0.2 to 0.5
9,"CC(=O)N[C@@H](CC(C)C)C(=O)N[C@@H](C[C@@H]1CCNC1=O)C(=O)COC(F)(F)F [Compound 709, (S)-2-acetamido-4-methyl-N-((S)-3-oxo-l-((S)-2-oxopyrrolidin-3-yl)-4-(trifluoromethoxy)butan-2-yl)pentanamide]",0.2 to 0.5
10,"CCC[C@@H](O)C(=O)N1CC2(CC2)C[C@H]1C(=O)N[C@@H](C[C@@H]1CCNC1=O)C(=O)COC(F)(F)F [Compound 766, (S)-5-((R)-2-hydroxypentanoyl)-N-((S)-3-oxo-1-((S)-2-oxopyrrolidin-3-yl)-4-(trifluoromethoxy)butan-2-yl)-5-azaspiro[2.4]heptane-6-carboxamide]",0.05 to 0.2

# Same assay, conditions: Severe acute respiratory syndrome coronavirus 2, HeLa-ACE2, 24 h, read-out: EC50, uM (Hela)
row,SMILES,EC50 [µM]
1,"CC(C)C[C@H](CC(=O)NCc1ccccc1F)C(=O)N[C@@H](C[C@@H]1CCNC1=O)C(=O)COc1c(F)c(F)cc(F)c1F [Compound 54, (R)-N4-(2-fluorobenzyl)-2-isobutyl-N1-((S)-3-oxo-1-((S)-2-oxopyrrolidin-3-yl)-4-(2,3,5,6-tetrafluorophenoxy)butan-2-yl)succinamide]",> 1
